Experimental data published in US20230172930A1, “USE OF COMPLEMENT FACTOR D INHIBITORS ALONE OR IN COMBINATION WITH ANTI-C5 ANTIBODIES FOR TREATMENT OF PAROXYSMAL NOCTURNAL HEMOGLOBINURIA” (Alexion Pharmaceuticals, Inc., priority 2020, published 2023).

Columns and labels:
[1] = test system: PNH patients with an inadequate response to eculizumab; assay: Phase 2 study: FACIT-Fatigue Scale V4 (score range 0-52, higher = improvement); assay type: in vivo, human; details: for FACIT-Fatigue, mean: N=11
Description: This study utilized the validated quality of life instrument FACIT-Fatigue Scale (Version 4). This self-reporting instrument measures the severity of fatigue being experienced on a scale of 0 to 52 where a score of less than 30 represents severe fatigue and higher scores indicate improvement in fatigue. A 3-point change is clinically meaningful on this scale. A 10-point or greater change is highly significant on this scale. […] This constitutes an upper limit of the disclosure.

[2] = Phase 2 study: plasma danicopan pharmacokinetics (LC-MS/MS); assay type: in vivo, human
Description: The mean (% CV) Ctrough value was 105 (57) ng/mL during these intensive sampling days. Sampling at through times over the rest of the study duration under less controlled conditions yielded a mean (% CV) Ctrough value of 150 (59) ng/mL.

CC(=O)c1nn(CC(=O)N2C[C@H](F)C[C@H]2C(=O)Nc2cccc(Br)n2)c2ccc(-c3cnc(C)nc3)cc12 [Danicopan, danicopan]
FACIT-Fatigue, mean ([1]; Baseline, before danicopan, on eculizumab): 34 | FACIT-Fatigue, mean ([1]; Week 24, danicopan 100-200 mg TID + eculizumab): 45 | FACIT-Fatigue ([1]; Patient A, Baseline, before danicopan, on eculizumab 900 mg q14d): 33 | FACIT-Fatigue ([1]; Patient A, Week 12, danicopan 150 mg TID + eculizumab 900 mg q14d): 48 | FACIT-Fatigue ([1]; Patient A, Week 24, danicopan 150 mg TID + eculizumab 900 mg q14d): 52 | FACIT-Fatigue ([1]; Patient B, Baseline, before danicopan, on eculizumab 1200 mg q14d): 45 | FACIT-Fatigue ([1]; Patient B, Week 12, danicopan 100 mg TID + eculizumab 900 mg q14d): 49 | FACIT-Fatigue ([1]; Patient B, Week 24, danicopan 100 mg TID + eculizumab 900 mg q14d): 48 | FACIT-Fatigue ([1]; Patient C, Baseline, before danicopan, on eculizumab 900 mg q14d): 17 | FACIT-Fatigue ([1]; Patient C, Week 12, danicopan 150 mg TID + eculizumab 900 mg q14d): 36 | FACIT-Fatigue ([1]; Patient C, Week 24, danicopan 150 mg TID + eculizumab 900 mg q14d): 26 | FACIT-Fatigue ([1]; Patient D, Baseline, before danicopan, on eculizumab 900 mg q14d): 18 | FACIT-Fatigue ([1]; Patient D, Week 12, danicopan 150 mg TID + eculizumab 900 mg q14d): 41 | FACIT-Fatigue ([1]; Patient D, Week 24, danicopan 150 mg TID + eculizumab 900 mg q14d): 41 | FACIT-Fatigue ([1]; Patient E, Baseline, before danicopan, on eculizumab 1200 mg q14d): 42 | FACIT-Fatigue ([1]; Patient E, Week 12, danicopan 150 mg TID + eculizumab 1200 mg q14d): 25 | FACIT-Fatigue ([1]; Patient E, Week 24, danicopan 150 mg TID + eculizumab 1200 mg q14d): 38 | FACIT-Fatigue score ([1]; Patient F, Baseline): 9 points | FACIT-Fatigue improvement ([1]; Patient F, Baseline to Week 24): 43 point | FACIT-Fatigue ([1]; Patient F, Baseline, before danicopan, on eculizumab 900 mg q14d): 9 | FACIT-Fatigue ([1]; Patient F, Week 12, danicopan 150 mg TID + eculizumab 900 mg q14d): 48 | FACIT-Fatigue score ([1]; Patient F, Week 24): 52 points | FACIT-Fatigue ([1]; Patient F, Week 24, danicopan 150 mg TID + eculizumab 900 mg q14d): 52 | FACIT-Fatigue ([1]; Patient G, Baseline, before danicopan, on eculizumab 1500 mg q14d): 28 | FACIT-Fatigue ([1]; Patient G, Week 12, danicopan 100 mg TID + eculizumab 1500 mg q14d): 44 | FACIT-Fatigue ([1]; Patient G, Week 24, danicopan 100 mg TID + eculizumab 1500 mg q14d): 38 | FACIT-Fatigue ([1]; Patient H, Baseline, before danicopan, on eculizumab 900 mg q14d): 47 | FACIT-Fatigue ([1]; Patient H, Week 12, danicopan 200 mg TID + eculizumab 900 mg q14d): 49 | FACIT-Fatigue ([1]; Patient H, Week 24, danicopan 200 mg TID + eculizumab 900 mg q14d): 49 | FACIT-Fatigue ([1]; Patient I, Baseline, before danicopan, on eculizumab 900 mg q14d): 48 | FACIT-Fatigue ([1]; Patient I, Week 12, danicopan 100 mg TID + eculizumab 900 mg q14d): 50 | FACIT-Fatigue ([1]; Patient I, Week 24, danicopan 200 mg TID + eculizumab 900 mg q14d): 49 | FACIT-Fatigue ([1]; Patient J, Baseline, before danicopan, on eculizumab 1200 mg q14d): 49 | FACIT-Fatigue ([1]; Patient J, Week 12, danicopan 100 mg TID + eculizumab 1200 mg q14d): 51 | FACIT-Fatigue ([1]; Patient J, Week 24, danicopan 200 mg TID + eculizumab 1200 mg q14d): 51 | FACIT-Fatigue ([1]; Patient K, Baseline, before danicopan, on eculizumab 900 mg q14d): 33 | FACIT-Fatigue ([1]; Patient K, Week 12, danicopan 100 mg TID + eculizumab 900 mg q14d): 46 | FACIT-Fatigue ([1]; Patient K, Week 24, danicopan 150 mg TID + eculizumab 900 mg q14d): 50 | mean increase in FACIT-Fatigue score ([1]; at 24 Weeks relative to Baseline on eculizumab): 11 points | Ctrough, mean (% CV) ([2]; intensive sampling days, Week 7): 105 (57) ng/mL | Ctrough, mean (% CV) ([2]; trough sampling over the rest of the study, less controlled conditions): 150 (59) ng/mL
